Data from PubChem BioAssay AID1963959 (Molecular Pharmacology Branch, DTP, NCI, 2024).

Tested on: T-47D spheroids with HUVEC/MSC, viability
Experiment: Anticancer human tumor T-47D cell line growth inhibition [PI3K];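 note: spheroids exposed to agents for seven days before reading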;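 for viability, T/C: percent of DMSO vehicle control luminescence so 100% = untreated growth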
Settings: for IC50: curve of first compound; for viability, T/C: stronger effect = lower value
Description: Combinatorial screen of targeted agents with the PI3K inhibitors inavolisib, alpelisib, duvelisib, and copanlisib in multi-cell type tumor spheroids
A high-throughput screen of multi-cell type tumor spheroids was designed to identify active combinations of targeted small molecules and PI3K pathway inhibitors. Complex spheroids include a stromal component modeled by human endothelial cells (HUVEC) and fibroblasts modeled by human mesenchymal stem cells (MSCs). The concentration ranges selected for each drug and investigational agent were based upon clinically achievable concentrations if the clinical Cmax of the agent was known.
Compounds. The drugs and investigational agents: inavolisib (NSC800729), alpelisib (NSC765974), duvelisib (NSC772469), copanlisib (NSC816437), ipatasertib (NSC767898), afuresertib (NSC778305), talazoparib (NSC767125), sapanisertib (NSC764658), selumetinib (NSC741078), tovorafenib (DAY101, NSC766906), vemurafenib (NSC761431), ravoxertinib (NSC781343), sotorasib (NSC818433), MRTX1133 (NSC 836407), abemaciclib (NSC 768073), palbociclib (NSC758247), venetoclax (NSC 766270), SY5609 (NSC837396), enzalutamide (NSC755605), and darolutamide (NSC825331), were obtained from the National Cancer Institute (NCI) Developmental Therapeutics Program Chemical Repository. The FDA-approved anticancer drug set is available from the NCI Developmental Therapeutics Program. […] The stock solutions were prepared in dimethyl sulfoxide (DMSO, Sigma-Aldrich, St. Louis, MO, cat. D2650) at 800-fold the tested concentration and stored at -70 degrees C prior to their use. All drugs and investigational agents were tested over a range starting from a high concentration at or near the clinical Cmax and decreasing in half-log increments. If the clinical Cmax for an agent had not been determined, the highest concentration tested was 10 microM.
Cell Culture. All cells were maintained in an incubator at 37 degrees C and 5% CO2 with 95% humidity. The PDC lines were cultured according to standard operating procedures established by the NCI PDMR (https://pdmr.cancer.gov/sops/default.htm). All PDCs were thawed and cultured in Matrigel-coated flasks prepared with a working solution of 1X Ham's F-12 nutrient mix, without supplementation (Invitrogen, Waltham, MA, cat. 11765054), 100 U/mL penicillin-streptomycin (Invitrogen, cat. 15140122), and 2.5% Matrigel (Corning Inc., Corning, NY, cat. 354248) for the first three passages. The 354836-022-R-J1-PDC, 475296-252-R-J1-PDC, and 997726-040-R-J2-PDC lines were cultured in 6A media, which includes advanced DMEM/F-12 (Thermo Fisher Scientific, cat. 12634028), 10 mM HEPES (Thermo Fisher Scientific, cat. 15630080), 1X GlutaMAX supplement (Thermo Fisher Scientific, cat. 35050061), 0.1 mg/mL primocin (InvivoGen, San Diego, CA, cat. ant-pm-2), 10% defined fetal bovine serum, heat inactivated (HyClone Laboratories Inc., Logan, UT, cat. SH30070.03HI), 50% L-WRN conditioned media (ATCC, cat. CRL-3276), 1.25 mM N-Acetyl-L-cysteine (Sigma-Aldrich, cat. A9165), 10 mM nicotinamide (Sigma-Aldrich, cat. N0636), 1X B-27 supplement (Thermo Fisher Scientific, cat. 17504044), 1X N-2 supplement (Thermo Fisher Scientific, cat. 17502048), and 10 microM Y-27632 dihydrochloride (Tocris Bioscience, Bristol, United Kingdom, cat. 1254). The 624824-186-R-J2-PDC line was cultured in 6C/Colon 1B media, which includes all 6A media components plus 50 ng/mL human EGF recombinant protein (Thermo Fisher Scientific, cat. PHG0311). […]

[1] = second compound 0.0316 µM, first compound 0.0316 µM
[2] = second compound 0.0316 µM, first compound 0.1 µM
[3] = second compound 0.1 µM, first compound 0.0316 µM
[4] = second compound 0.1 µM, first compound 0.1 µM
[5] = second compound 0.316 µM, first compound 0.0316 µM
[6] = second compound 0.316 µM, first compound 0.1 µM
[7] = second compound 1 µM, first compound 0.0316 µM
[8] = second compound 1 µM, first compound 0.1 µM

Cn1ncnc1[C@H]1c2n[nH]c(=O)c3cc(F)cc(c23)N[C@@H]1c1ccc(F)cc1 + CC(Nc1ccc2c(c1)OCCn1cc(N3C(=O)OCC3C(F)F)nc1-2)C(N)=O
IC50 (second compound 0.00316 µM): > 0.1 µM | IC50 (second compound 0.01 µM): > 0.1 µM | IC50 (second compound 0.0316 µM): > 0.1 µM | IC50 (second compound 0.1 µM): > 0.1 µM | IC50 (second compound 0.316 µM): > 0.1 µM | IC50 (second compound 1 µM): > 0.1 µM | viability, T/C (second compound 0.00316 µM, first compound 0.000316 µM): 88.8% | viability, T/C (second compound 0.00316 µM, first compound 0.001 µM): 82.8% | viability, T/C (second compound 0.00316 µM, first compound 0.00316 µM): 109% | viability, T/C (second compound 0.00316 µM, first compound 0.01 µM): 86.9% | viability, T/C (second compound 0.00316 µM, first compound 0.0316 µM): 96.3% | viability, T/C (second compound 0.00316 µM, first compound 0.1 µM): 112% | viability, T/C (second compound 0.01 µM, first compound 0.000316 µM): 113% | viability, T/C (second compound 0.01 µM, first compound 0.001 µM): 78.7% | viability, T/C (second compound 0.01 µM, first compound 0.00316 µM): 80.3% | viability, T/C (second compound 0.01 µM, first compound 0.01 µM): 96.2% | viability, T/C (second compound 0.01 µM, first compound 0.0316 µM): 91.3% | viability, T/C (second compound 0.01 µM, first compound 0.1 µM): 89.4% | viability, T/C (second compound 0.0316 µM, first compound 0.000316 µM): 108% | viability, T/C (second compound 0.0316 µM, first compound 0.001 µM): 74.7% | viability, T/C (second compound 0.0316 µM, first compound 0.00316 µM): 88.8% | viability, T/C (second compound 0.0316 µM, first compound 0.01 µM): 85% | viability, T/C [1]: 81.2% | viability, T/C [2]: 75.8% | viability, T/C (second compound 0.1 µM, first compound 0.000316 µM): 79.2% | viability, T/C (second compound 0.1 µM, first compound 0.001 µM): 76.7% | viability, T/C (second compound 0.1 µM, first compound 0.00316 µM): 78.3% | viability, T/C (second compound 0.1 µM, first compound 0.01 µM): 81.6% | viability, T/C [3]: 86.5% | viability, T/C [4]: 76.2% | viability, T/C (second compound 0.316 µM, first compound 0.000316 µM): 77.1% | viability, T/C (second compound 0.316 µM, first compound 0.001 µM): 80.1% | viability, T/C (second compound 0.316 µM, first compound 0.00316 µM): 57.1% | viability, T/C (second compound 0.316 µM, first compound 0.01 µM): 65.6% | viability, T/C [5]: 62.3% | viability, T/C [6]: 61.9% | viability, T/C (second compound 1 µM, first compound 0.000316 µM): 61.5% | viability, T/C (second compound 1 µM, first compound 0.001 µM): 48.5% | viability, T/C (second compound 1 µM, first compound 0.00316 µM): 54.2% | viability, T/C (second compound 1 µM, first compound 0.01 µM): 58% | viability, T/C [7]: 55.2% | viability, T/C [8]: 49.8%

CC(Cn1ccc(-c2ccc(C#N)c(Cl)c2)n1)NC(=O)c1cc(C(C)O)[nH]n1 (centres undefined) + CC(Nc1ncnc2nc[nH]c12)c1cc2cccc(Cl)c2c(=O)n1-c1ccccc1
IC50 (second compound 0.0316 µM): > 10 µM | IC50 (second compound 0.1 µM): > 10 µM | IC50 (second compound 0.316 µM): > 10 µM | IC50 (second compound 1 µM): > 10 µM | IC50 (second compound 3.16 µM): > 10 µM | IC50 (second compound 10 µM): > 10 µM | viability, T/C [1]: 83.6% | viability, T/C [2]: 76.1% | viability, T/C (second compound 0.0316 µM, first compound 0.316 µM): 87.8% | viability, T/C (second compound 0.0316 µM, first compound 1 µM): 90% | viability, T/C (second compound 0.0316 µM, first compound 3.16 µM): 86.2% | viability, T/C (second compound 0.0316 µM, first compound 10 µM): 51% | viability, T/C [3]: 93.1% | viability, T/C [4]: 80% | viability, T/C (second compound 0.1 µM, first compound 0.316 µM): 75.7% | viability, T/C (second compound 0.1 µM, first compound 1 µM): 82.3% | viability, T/C (second compound 0.1 µM, first compound 3.16 µM): 85.6% | viability, T/C (second compound 0.1 µM, first compound 10 µM): 54.9% | viability, T/C [5]: 90.7% | viability, T/C [6]: 107% | viability, T/C (second compound 0.316 µM, first compound 0.316 µM): 86.4% | viability, T/C (second compound 0.316 µM, first compound 1 µM): 87.5% | viability, T/C (second compound 0.316 µM, first compound 3.16 µM): 74.9% | viability, T/C (second compound 0.316 µM, first compound 10 µM): 62.1% | viability, T/C [7]: 80.2% | viability, T/C [8]: 77.4% | viability, T/C (second compound 1 µM, first compound 0.316 µM): 92.9% | viability, T/C (second compound 1 µM, first compound 1 µM): 80.9% | viability, T/C (second compound 1 µM, first compound 3.16 µM): 74.4% | viability, T/C (second compound 1 µM, first compound 10 µM): 64% | viability, T/C (second compound 3.16 µM, first compound 0.0316 µM): 84.5% | viability, T/C (second compound 3.16 µM, first compound 0.1 µM): 86.5% | viability, T/C (second compound 3.16 µM, first compound 0.316 µM): 87.7% | viability, T/C (second compound 3.16 µM, first compound 1 µM): 85.7% | viability, T/C (second compound 3.16 µM, first compound 3.16 µM): 81.4% | viability, T/C (second compound 3.16 µM, first compound 10 µM): 52.4% | viability, T/C (second compound 10 µM, first compound 0.0316 µM): 80.7% | viability, T/C (second compound 10 µM, first compound 0.1 µM): 84.3% | viability, T/C (second compound 10 µM, first compound 0.316 µM): 75.2% | viability, T/C (second compound 10 µM, first compound 1 µM): 80.1% | viability, T/C (second compound 10 µM, first compound 3.16 µM): 72.2% | viability, T/C (second compound 10 µM, first compound 10 µM): 56.4%
